We go through five compounds from article PMC8815339 (The Biochemical journal, 2009).

Assay [1] has as its target T1, recombinant PfPRMT1 (MBP-PfPRMT1) (Plasmodium falciparum, UniProt Q8ILK1).
T1 sequence (Q8ILK1 1-401): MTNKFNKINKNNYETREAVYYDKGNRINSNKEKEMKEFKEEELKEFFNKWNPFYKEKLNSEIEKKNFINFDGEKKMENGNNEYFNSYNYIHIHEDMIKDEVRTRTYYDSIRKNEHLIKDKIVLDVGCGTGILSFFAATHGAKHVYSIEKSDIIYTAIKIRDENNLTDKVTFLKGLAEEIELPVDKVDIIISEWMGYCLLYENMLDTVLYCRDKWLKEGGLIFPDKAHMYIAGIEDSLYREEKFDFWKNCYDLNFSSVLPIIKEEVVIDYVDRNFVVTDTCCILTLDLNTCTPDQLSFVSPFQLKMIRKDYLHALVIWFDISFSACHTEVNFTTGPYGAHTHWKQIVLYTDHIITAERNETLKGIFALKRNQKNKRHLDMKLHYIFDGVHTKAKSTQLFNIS
Nature of the assay: Inhibition of recombinant PfPRMT1 methylation activity. The assay is classed as biochemical. Conditions: chaetocin: in the lower micromolar concentration.

Assay [2] relates to P. falciparum 3D7-luc. As to the kind of experiment: Parasite growth inhibition, luciferase-expressing strain 3D7-luc. The assay is classed as cell-based, Plasmodium falciparum. Conditions: for IC50: read-out: IC50s for 3D7 growth.
Assay [3] has as its system rat PRMT1 (rPRMT1). Conditions: cited from earlier work.
[4] abbreviates: Plasmodium falciparum, 3D7, 48 h.
Setting [5] is: late ring-stage parasites, 48 h, 37°C, 2% parasitemia, 2% hematocrit.

Structures are written as SMILES. Where two headings read alike, the source gives them in different places. A value given as a limit tells only on which side of the number the result lay.

`O=C1OC2(c3ccccc31)c1cc(Br)c(O)c(Br)c1Oc1c2cc(Br)c(O)c1Br` [Eosin Y (AMI-5), Eosin Y]: the “Inhibition of PfPRMT1 (in words)” value in assay [1] is on record as “strong inhibitory activity”. Also, the IC50 in assay [2] (setting [4]) is 14.8 ± 1.01 µM. As to `CSC[C@H]1O[C@@H](n2cnc3c(N)ncnc32)[C@H](O)[C@@H]1O` [5-Deoxy-5-methylthioadenosine (MTA), 5-Deoxy-5-methylthioadenosine], in assay [2] (setting [5]), the IC50 is more than 100 µM. The term Km denotes the concentration of substrate that gives half-maximal velocity. In the case of `C[S+](CC[C@H](N)C(=O)[O-])C[C@H]1O[C@@H](n2cnc3c(N)ncnc32)[C@H](O)[C@@H]1O` (stereo partly drawn) [AdoMet, S-adenosylmethionine], in assay [3] (read-out: Km, rPRMT1, ref [31]), the Km is 2.52 ± 0.54 µM. Further, the “kcat, rPRMT1” value in assay [3] (ref [31]) is 0.014 ± 0.0005 s⁻¹. On to `CN1C(=O)[C@@]23C[C@]4([C@]56C[C@@]78SS[C@@](CO)(C(=O)N7[C@H]5Nc5ccccc56)N(C)C8=O)c5ccccc5N[C@@H]4N2C(=O)[C@]1(CO)SS3` [Chaetocin], for which the “Inhibition of PfPRMT1 (in words)” value in assay [1] was “no obvious inhibition”. In addition, the IC50 in assay [2] (setting [4]) is 14 ± 1.56 µM. As to `Nc1ncnc2c1ncn2[C@@H]1O[C@H](C[C@@H](N)CC[C@H](N)C(=O)O)[C@@H](O)[C@H]1O` [Sinefungin], in assay [2] (setting [4]), the IC50 is 2.71 ± 0.04 µM. Also, the “IC50s for 3D7 growth” value in assay [2] (setting [5]) is recorded as “lower micromolar”.
